The target in one series is T1, telomerase (Homo sapiens, UniProt O14746).
T1 construct: telomeric repeats added to an oligonucleotide by telomerase in the cell extract; endogenous in cells; host or cells: SiHa, C33A, CaSki and HeLa cervical carcinoma cell extracts (CHAPS lysis)
Put plainly: Inhibition of telomerase activity by TRAP-assay (telomeric repeat amplification, extracts of cervical carcinoma cell lines SiHa, C33A, CaSki, HeLa). In kind it is biochemical. The settings on record: concentration at which inhibition of telomerase activity is 50%. The procedure:
To test the inhibition of telomerase compounds prepared in this way, we used the method of amplification added telomeric repeats (TRAP-analysis). TRAP-analysis is a standard method for determining the activity of telomerase, due to some modification this method could be semi quantitative. The choice of method for detection of telomerase activity was determined by its wide coverage in the worlds literature, almost sensitivity, as well as the availability of equipment and reagents.
Telomeric repeats amplification protocol can be divided into three main steps: primer extension, amplification of the resulting product (s) and detection. In step lengthening telomeric repeats added to an oligonucleotide by telomerase in the cell extract. Telomerase recognizes it as a substrate (TS). In step of amplification of extension products of TS oligonucleotide by telomerase false signals may appear due to amplification of telomeres of chromosomes possibly have contained in the cell extract. To avoid this, the 5′-end of the oligonucleotide TS has no telomeric sequence, which prevents it to contact with telomeres, but is recognized as a telomerase substrate. Since human telomerase adds a series repeats with six nucleotides, the resulting lengthening of TS oligonucleotide by telomerase set of DNA fragments that differ in length synthesized. […]

The values that follow come from patent publication US20130109861A1, “TELOMERASE INHIBITORS AND A METHOD FOR THE PREPARATION THEREOF” (GOSUDARSTVENNOE UCHEBNO-NAUCHNOE UCHREZHDENIE KHIMICHESKIJJ …, priority 2010, published 2013).

The IC50 is the midpoint of a concentration-inhibition curve. High values mean weaker potency, low ones greater potency. By melting point is commonly meant the temperature of the solid-liquid transition.

`C=CCN1C(=O)/C(=C/c2ccccn2)N=C1SCCSC1=N/C(=C\c2ccccn2)C(=O)N1CC=C` [Example 3, (5Z,5′Z)-2,2′-(ethan-1,2-diyldisulfanyldiyl)bis(5-(pyridine-2-ylmethylene)-3-allyl-3,5-dihydro-4H-imidazole-4-on)] displayed a melting point of 187 °C. This compound also returned an IC50 on telomerase of 2 µM.
